From the NIST ThermoML archive (doi:10.1016/j.fluid.2015.05.032)
Numbers after ± are expanded uncertainties.

Tests used:
[1] = Liquid; for mass density: 298.15 K, 101.33 kPa, Vibrating tube method; for Normal boiling temperature: Ebulliometric method (Recirculating still)
[2] = refractive index (Na D-line) (dimensionless); conditions: 293.15 K; 101.33 kPa; Liquid; Standard Abbe refractometry

SMILES	mass density [1]	Normal boiling temperature [1]	refractive index [2]
CC(=O)O [acetic acid]	1043.5 ± 0.3 kg/m3	117.93 ± 0.2 °C	1.3718 ± 0.0004
Cc1ccc(C)cc1 [1,4-dimethylbenzene]	856.5 ± 0.3 kg/m3	138.47 ± 0.2 °C	1.4952 ± 0.0004
COC(C)=O [methyl ethanoate]	927.5 ± 0.3 kg/m3	56.7 ± 0.2 °C	1.3614 ± 0.0004
CCC(C)OC(C)=O (configuration not stated) [1-methylpropyl ethanoate]	866.4 ± 0.3 kg/m3	111.93 ± 0.2 °C	1.3886 ± 0.0004
